According to patent publication US20090299044A1 (priority 2006, published 2009):
Bridge positions count the residues as written; N and C are the ends. Peptide text beside a SMILES is read from it.

Tests used:
human Kv1.1 (HEK293) = target: T1, human Kv1.1 (HEK293) (Homo sapiens, UniProt Q09470); experiment: cell-based
T1 construct: expressed in transfected cells; host or cells: HEK293

human Kv1.3 (CHO) = target: T2, human Kv1.3 (CHO) (Homo sapiens, UniProt P22001); experiment: cell-based
T2 construct: expressed in transfected cells; host or cells: CHO
T2 sequence (P22001 whole entry): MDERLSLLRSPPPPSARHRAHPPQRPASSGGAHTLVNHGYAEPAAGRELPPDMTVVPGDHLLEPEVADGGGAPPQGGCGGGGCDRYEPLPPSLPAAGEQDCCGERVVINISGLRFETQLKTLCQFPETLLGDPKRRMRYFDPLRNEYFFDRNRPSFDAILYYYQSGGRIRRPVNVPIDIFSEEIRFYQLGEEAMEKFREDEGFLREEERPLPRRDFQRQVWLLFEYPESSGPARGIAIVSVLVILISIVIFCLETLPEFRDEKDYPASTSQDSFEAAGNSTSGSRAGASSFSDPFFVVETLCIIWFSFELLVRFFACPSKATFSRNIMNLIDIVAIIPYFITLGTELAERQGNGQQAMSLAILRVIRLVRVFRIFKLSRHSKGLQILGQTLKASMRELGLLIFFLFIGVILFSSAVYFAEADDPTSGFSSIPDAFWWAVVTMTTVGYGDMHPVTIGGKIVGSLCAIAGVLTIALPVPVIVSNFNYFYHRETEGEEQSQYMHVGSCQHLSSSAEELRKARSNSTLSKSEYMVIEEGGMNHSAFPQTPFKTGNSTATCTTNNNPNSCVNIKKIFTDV

T1 sequence (Q09470 whole entry): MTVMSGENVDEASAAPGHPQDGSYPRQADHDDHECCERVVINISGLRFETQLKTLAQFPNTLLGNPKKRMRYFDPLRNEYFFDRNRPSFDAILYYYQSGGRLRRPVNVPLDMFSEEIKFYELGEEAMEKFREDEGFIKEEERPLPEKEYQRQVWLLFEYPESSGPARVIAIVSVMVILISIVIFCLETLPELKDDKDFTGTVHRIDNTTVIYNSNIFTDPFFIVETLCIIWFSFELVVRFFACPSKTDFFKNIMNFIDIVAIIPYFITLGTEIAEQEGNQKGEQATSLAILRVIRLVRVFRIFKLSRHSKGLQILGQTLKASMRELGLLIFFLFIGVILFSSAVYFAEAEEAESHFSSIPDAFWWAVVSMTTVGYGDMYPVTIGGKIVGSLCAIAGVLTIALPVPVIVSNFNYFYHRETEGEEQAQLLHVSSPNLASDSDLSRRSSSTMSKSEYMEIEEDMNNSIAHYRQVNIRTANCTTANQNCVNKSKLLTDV

Structure (SMILES) | IC50 (human Kv1.1 (HEK293)) [pM] | IC50 (human Kv1.3 (CHO)) [pM]
CC[C@H](C)[C@@H]1NC(=O)[C@H](CCCCN)NC(=O)[C@@H](NC(=O)[C@H](CCCCN)NC(=O)[C@@H](NC(=O)[C@H](CC(N)=O)NC(=O)[C@@H](NC(=O)[C@@H](NC(=O)[C@@H](NC(=O)CN)C(C)C)[C@@H](C)CC)[C@@H](C)CC)C(C)C)CSSC[C@@H]2NC(=O)[C@H](CCCCN)NC(=O)[C@H](CCC(=O)O)NC(=O)[C@H](Cc3ccccc3)NC(=O)[C@H](CCCNC(=N)N)NC(=O)[C@H](CCSC)NC(=O)CNC(=O)[C@H](C)NC(=O)[C@H](CCCCN)NC(=O)[C@H](CCCCN)NC(=O)[C@@H]3CSSC[C@@H](C(=O)N[C@H](C(=O)N4CCC[C@H]4C(=O)N[C@@H](CCCCN)C(=O)O)[C@@H](C)O)NC(=O)[C@H](Cc4c[nH]cn4)NC(=O)[C@H](CSSC[C@H](NC(=O)[C@H](CCC(N)=O)NC(=O)[C@H](CCCNC(=N)N)NC(=O)[C@H](CO)NC1=O)C(=O)N[C@@H](CC(C)C)C(=O)N[C@@H](CCC(=O)O)C(=O)N1CCC[C@H]1C(=O)N3)NC(=O)[C@H](CCCCN)NC(=O)CNC(=O)[C@H](CC(N)=O)NC(=O)[C@H](CCSC)NC2=O [G26E] (H-GVIINVKCKISRQCLEPCKKAGMRFEKCMNGKCHCTPK-OH; disulfide 8-28, 14-33, 18-35) | > 3330 | > 3330
CC[C@H](C)[C@@H]1NC(=O)[C@H](CCCCN)NC(=O)[C@@H](NC(=O)[C@H](CCCCN)NC(=O)[C@@H](NC(=O)[C@H](CC(N)=O)NC(=O)[C@@H](NC(=O)[C@@H](NC(=O)[C@@H](NC(=O)CN)C(C)C)[C@@H](C)CC)[C@@H](C)CC)C(C)C)CSSC[C@@H]2NC(=O)[C@H](CCCCN)NC(=O)[C@H](CCCNC(=N)N)NC(=O)[C@H](Cc3ccccc3)NC(=O)[C@H](CCCNC(=N)N)NC(=O)[C@H](CCSC)NC(=O)CNC(=O)[C@H](C)NC(=O)[C@H](CCCCN)NC(=O)[C@H](CCCCN)NC(=O)[C@@H]3CSSC[C@@H](C(=O)N[C@H](C(=O)N4CCC[C@H]4C(=O)N[C@@H](CCCCN)C(=O)O)[C@@H](C)O)NC(=O)[C@H](Cc4c[nH]cn4)NC(=O)[C@H](CSSC[C@H](NC(=O)[C@H](CCC(N)=O)NC(=O)[C@H](CCCNC(=N)N)NC(=O)[C@H](CO)NC1=O)C(=O)N[C@@H](CC(C)C)C(=O)N[C@@H](CCC(=O)O)C(=O)N1CCC[C@H]1C(=O)N3)NC(=O)[C@H](CCCCN)NC(=O)CNC(=O)[C@H](CC(N)=O)NC(=O)[C@H](CCSC)NC2=O [G26R] (H-GVIINVKCKISRQCLEPCKKAGMRFRKCMNGKCHCTPK-OH; disulfide 8-28, 14-33, 18-35) | > 3330 | > 3330
CC[C@H](C)[C@@H]1NC(=O)[C@H](CCCCN)NC(=O)[C@@H](NC(=O)[C@H](CCCCN)NC(=O)[C@@H](NC(=O)[C@H](CC(N)=O)NC(=O)[C@@H](NC(=O)[C@@H](NC(=O)[C@@H](NC(=O)CN)C(C)C)[C@@H](C)CC)[C@@H](C)CC)C(C)C)CSSC[C@@H]2NC(=O)[C@H](CCCCN)NC(=O)CNC(=O)[C@H](Cc3ccccc3)NC(=O)[C@H](CCCNC(=N)N)NC(=O)[C@H](CCSC)NC(=O)CNC(=O)[C@H](C)NC(=O)[C@H](CCCCN)NC(=O)[C@H](CCCCN)NC(=O)[C@@H]3CSSC[C@@H](C(=O)N[C@H](C(=O)N4CCC[C@H]4C(=O)N[C@@H](CCCCN)C(=O)O)[C@@H](C)O)NC(=O)[C@H](Cc4c[nH]cn4)NC(=O)[C@H](CSSC[C@H](NC(=O)[C@H](CCC(N)=O)NC(=O)[C@H](CCCNC(=N)N)NC(=O)[C@H](CO)NC1=O)C(=O)N[C@@H](CC(C)C)C(=O)N[C@@H](CCC(=O)O)C(=O)N1CCC[C@H]1C(=O)N3)NC(=O)[C@H](CCCCN)NC(=O)[C@H](C)NC(=O)[C@H](CC(N)=O)NC(=O)[C@H](CCSC)NC2=O [G31A] (H-GVIINVKCKISRQCLEPCKKAGMRFGKCMNAKCHCTPK-OH; disulfide 8-28, 14-33, 18-35) | 61.8 | 70.2
CC[C@H](C)[C@@H]1NC(=O)[C@H](CCCCN)NC(=O)[C@@H](NC(=O)[C@H](CCCCN)NC(=O)[C@@H](NC(=O)[C@H](CC(N)=O)NC(=O)[C@@H](NC(=O)[C@@H](NC(=O)[C@@H](NC(=O)CN)C(C)C)[C@@H](C)CC)[C@@H](C)CC)C(C)C)CSSC[C@@H]2NC(=O)[C@H](CCCCN)NC(=O)CNC(=O)[C@H](Cc3ccccc3)NC(=O)[C@H](CCCNC(=N)N)NC(=O)[C@H](CCSC)NC(=O)CNC(=O)[C@H](C)NC(=O)[C@H](CCCCN)NC(=O)[C@H](CCCCN)NC(=O)[C@@H]3CSSC[C@@H](C(=O)N[C@H](C(=O)N4CCC[C@H]4C(=O)N[C@@H](CCCCN)C(=O)O)[C@@H](C)O)NC(=O)[C@H](Cc4c[nH]cn4)NC(=O)[C@H](CSSC[C@H](NC(=O)[C@H](CCC(N)=O)NC(=O)[C@H](CCCNC(=N)N)NC(=O)[C@H](CO)NC1=O)C(=O)N[C@@H](CC(C)C)C(=O)N[C@@H](CCC(=O)O)C(=O)N1CCC[C@H]1C(=O)N3)NC(=O)[C@H](CCCCN)NC(=O)[C@H](CCC(=O)O)NC(=O)[C@H](CC(N)=O)NC(=O)[C@H](CCSC)NC2=O [G31E] (H-GVIINVKCKISRQCLEPCKKAGMRFGKCMNEKCHCTPK-OH; disulfide 8-28, 14-33, 18-35) | 2.37 | 12
CC[C@H](C)[C@@H]1NC(=O)[C@H](CCCCN)NC(=O)[C@@H](NC(=O)[C@H](CCCCN)NC(=O)[C@@H](NC(=O)[C@H](CC(N)=O)NC(=O)[C@@H](NC(=O)[C@@H](NC(=O)[C@@H](NC(=O)CN)C(C)C)[C@@H](C)CC)[C@@H](C)CC)C(C)C)CSSC[C@@H]2NC(=O)[C@H](CCCCN)NC(=O)CNC(=O)[C@H](Cc3ccccc3)NC(=O)[C@H](CCCNC(=N)N)NC(=O)[C@H](CCSC)NC(=O)CNC(=O)[C@H](C)NC(=O)[C@H](CCCCN)NC(=O)[C@H](CCCCN)NC(=O)[C@@H]3CSSC[C@@H](C(=O)N[C@H](C(=O)N4CCC[C@H]4C(=O)N[C@@H](CCCCN)C(=O)O)[C@@H](C)O)NC(=O)[C@H](Cc4c[nH]cn4)NC(=O)[C@H](CSSC[C@H](NC(=O)[C@H](CCC(N)=O)NC(=O)[C@H](CCCNC(=N)N)NC(=O)[C@H](CO)NC1=O)C(=O)N[C@@H](CC(C)C)C(=O)N[C@@H](CCC(=O)O)C(=O)N1CCC[C@H]1C(=O)N3)NC(=O)[C@H](CCCCN)NC(=O)[C@H](CCCNC(=N)N)NC(=O)[C@H](CC(N)=O)NC(=O)[C@H](CCSC)NC2=O [G31R] | 1.59 | 22.2
CC[C@H](C)[C@@H]1NC(=O)[C@H](CCCCN)NC(=O)[C@@H](NC(=O)[C@H](CCCCN)NC(=O)[C@@H](NC(=O)[C@H](CC(N)=O)NC(=O)[C@@H](NC(=O)[C@@H](NC(=O)[C@@H](NC(=O)CN)C(C)C)[C@@H](C)CC)[C@@H](C)CC)C(C)C)CSSC[C@@H]2NC(=O)[C@H](CCCCN)NC(=O)CNC(=O)[C@H](Cc3ccccc3)NC(=O)[C@H](CCCNC(=N)N)NC(=O)[C@H](CCSC)NC(=O)CNC(=O)[C@H](C)NC(=O)[C@H](CCCCN)NC(=O)[C@H](CCCCN)NC(=O)[C@@H]3CSSC[C@@H](C(=O)N[C@H](C(=O)N4CCC[C@H]4C(=O)N[C@@H](CCCCN)C(=O)O)[C@@H](C)O)NC(=O)[C@H](CCCNC(=N)N)NC(=O)[C@H](CSSC[C@H](NC(=O)[C@H](CCC(N)=O)NC(=O)[C@H](CCCNC(=N)N)NC(=O)[C@H](CO)NC1=O)C(=O)N[C@@H](CC(C)C)C(=O)N[C@@H](CCC(=O)O)C(=O)N1CCC[C@H]1C(=O)N3)NC(=O)[C@H](CCCCN)NC(=O)CNC(=O)[C@H](CC(N)=O)NC(=O)[C@H](CCSC)NC2=O [H34R] (H-GVIINVKCKISRQCLEPCKKAGMRFGKCMNGKCRCTPK-OH; disulfide 8-28, 14-33, 18-35) | 4.49 | 13.6
CC[C@H](C)[C@H](NC(=O)[C@H](C)NC(=O)[C@@H](NC(=O)CN)C(C)C)C(=O)N[C@@H](CC(N)=O)C(=O)N[C@H](C(=O)N[C@@H](CCCCN)C(=O)N[C@H]1CSSC[C@@H]2NC(=O)[C@H](CCCCN)NC(=O)CNC(=O)[C@H](Cc3ccccc3)NC(=O)[C@H](CCCNC(=N)N)NC(=O)[C@H](CCSC)NC(=O)CNC(=O)[C@H](C)NC(=O)[C@H](CCCCN)NC(=O)[C@H](CCCCN)NC(=O)[C@@H]3CSSC[C@@H](C(=O)N[C@H](C(=O)N4CCC[C@H]4C(=O)N[C@@H](CCCCN)C(=O)O)[C@@H](C)O)NC(=O)[C@H](Cc4c[nH]cn4)NC(=O)[C@H](CSSC[C@H](NC(=O)[C@H](CCC(N)=O)NC(=O)[C@H](CCCNC(=N)N)NC(=O)[C@H](CO)NC(=O)[C@H]([C@@H](C)CC)NC(=O)[C@H](CCCCN)NC1=O)C(=O)N[C@@H](CC(C)C)C(=O)N[C@@H](CCC(=O)O)C(=O)N1CCC[C@H]1C(=O)N3)NC(=O)[C@H](CCCCN)NC(=O)CNC(=O)[C@H](CC(N)=O)NC(=O)[C@H](CCSC)NC2=O)C(C)C [I3A] (H-GVAINVKCKISRQCLEPCKKAGMRFGKCMNGKCHCTPK-OH; disulfide 8-28, 14-33, 18-35) | 10.6 | 96.6
CC[C@H](C)[C@@H]1NC(=O)[C@H](CCCCN)NC(=O)[C@@H](NC(=O)[C@H](CCCCN)NC(=O)[C@@H](NC(=O)[C@H](CC(N)=O)NC(=O)[C@@H](NC(=O)[C@H](CCC(=O)O)NC(=O)[C@@H](NC(=O)CN)C(C)C)[C@@H](C)CC)C(C)C)CSSC[C@@H]2NC(=O)[C@H](CCCCN)NC(=O)CNC(=O)[C@H](Cc3ccccc3)NC(=O)[C@H](CCCNC(=N)N)NC(=O)[C@H](CCSC)NC(=O)CNC(=O)[C@H](C)NC(=O)[C@H](CCCCN)NC(=O)[C@H](CCCCN)NC(=O)[C@@H]3CSSC[C@@H](C(=O)N[C@H](C(=O)N4CCC[C@H]4C(=O)N[C@@H](CCCCN)C(=O)O)[C@@H](C)O)NC(=O)[C@H](Cc4c[nH]cn4)NC(=O)[C@H](CSSC[C@H](NC(=O)[C@H](CCC(N)=O)NC(=O)[C@H](CCCNC(=N)N)NC(=O)[C@H](CO)NC1=O)C(=O)N[C@@H](CC(C)C)C(=O)N[C@@H](CCC(=O)O)C(=O)N1CCC[C@H]1C(=O)N3)NC(=O)[C@H](CCCCN)NC(=O)CNC(=O)[C@H](CC(N)=O)NC(=O)[C@H](CCSC)NC2=O [I3E] (H-GVEINVKCKISRQCLEPCKKAGMRFGKCMNGKCHCTPK-OH; disulfide 8-28, 14-33, 18-35) | 43 | 22
